Experimental data published in paper PMC7308888, “Development of a cell-free split-luciferase biochemical assay as a tool for screening for inhibitors of challenging protein-protein interaction targets” (Wellcome Open Research, 2020).

Molecular target: T1, KRAS-G12C (Homo sapiens, UniProt P01116, G12C)
T1 construct: full-length KRAS-G12C, Sm-BiT fused at the N-terminus; with p110α RBD (aa133-314), LgBiT fusion
Assay: NanoBiT split-luciferase KRAS/RBDα interaction assay in HEK293 cell lysate
Type: biochemical

Cn1cnc(Cn2ccc3ccc(CNCc4[nH]c5ccccc5c4[C@H]4NC(=O)c5ccc(O)cc54)cc32)c1 [BI-2852]
NanoBiT split-luciferase KRAS/RBDα interaction assay in HEK293 cell lysate: ~ 1 µM
